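All cell lines were grown in 96-well plates and treated with compound for 48 hours. Definition used: TGI = concentration required for complete inhibition of growth.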
Legend:
Experiment in all cases: NCI-60 cell line screen, 48 h
[1] = test system: DLD-1 colon
[2] = test system: OVCAR-5 ovarian
[3] = test system: SK-OV-3 ovarian
[4] = test system: OVCAR-4 ovarian
[5] = test system: SR leukemia
[6] = test system: HCT-116 colon
[7] = test system: SF-539 CNS
[8] = test system: NCI-H460 lung
[9] = test system: EKVX NSCLC
[10] = test system: NCI-H226 lung
[11] = test system: RXF-631 renal
[12] = test system: XF 498 CNS
[13] = test system: HOP-62 NSCLC
[14] = test system: HCT-15 colon
[15] = test system: A498 renal
[16] = test system: SF-268 CNS
[17] = test system: MOLT-4 leukemia
[18] = test system: A549 NSCLC
[19] = test system: OVCAR-3 ovarian
[20] = test system: CAKI-1 renal
[21] = test system: SNB-78 CNS
[22] = test system: ACHN renal
[23] = test system: KM20L2 colon
[24] = test system: HOP-18 NSCLC
[25] = test system: RPMI-8226 leukemia
[26] = test system: SW-620 colon
[27] = test system: M19-MEL melanoma
[28] = test system: U251 CNS
[29] = test system: UACC-62 melanoma
[30] = test system: LOX IMVI melanoma
[31] = test system: NCI-H522 lung
[32] = test system: SNB-19 CNS
[33] = test system: SK-MEL-28 melanoma
[34] = test system: SK-MEL-2 melanoma
[35] = test system: COLO 205 colon
[36] = test system: DMS 114 small cell lung
[37] = test system: SN12C renal
[38] = test system: IGROV1 ovarian
[39] = test system: HT29 colon
[40] = test system: SNB-75 CNS
[41] = test system: LXFL 529 NSCLC
[42] = test system: SF-295 CNS
[43] = test system: UACC-257 melanoma
[44] = test system: M14 melanoma
[45] = test system: HL-60(TB) leukemia
[46] = test system: HCC-2998 colon
[47] = test system: MALME-3M melanoma
[48] = test system: KM12 colon
[49] = test system: OVCAR-8 ovarian
[50] = test system: UO-31 renal
[51] = test system: CCRF-CEM leukemia
[52] = test system: HOP-92 NSCLC
[53] = test system: TK-10 renal
[54] = test system: DU-145 prostate
[55] = test system: K-562 leukemia
[56] = test system: RXF 393 renal
[57] = test system: 786-0 renal
[58] = test system: NCI-H23 lung

## N#CNC(=NCCO)NCCO
[1]
  TGI: > 100 µM
[2]
  TGI: > 100 µM
[3]
  TGI: > 100 µM
[4]
  TGI: > 100 µM
[5]
  TGI: > 100 µM
[6]
  TGI: > 100 µM
[7]
  TGI: > 100 µM
[8]
  TGI: > 100 µM
[9]
  TGI: > 100 µM
[10]
  TGI: > 100 µM
[11]
  TGI: > 100 µM
[12]
  TGI: > 100 µM
[13]
  TGI: > 100 µM
[14]
  TGI: > 100 µM
[15]
  TGI: > 100 µM
[16]
  TGI: > 100 µM
[17]
  TGI: > 100 µM
[18]
  TGI: > 100 µM
[19]
  TGI: > 100 µM
[20]
  TGI: > 100 µM
[21]
  TGI: > 100 µM
[22]
  TGI: > 100 µM
[23]
  TGI: > 100 µM
[24]
  TGI: > 100 µM
[25]
  TGI: > 100 µM
[26]
  TGI: > 100 µM
[27]
  TGI: > 100 µM
[28]
  TGI: > 100 µM
[29]
  TGI: > 100 µM
[30]
  TGI: > 100 µM
[31]
  TGI: > 100 µM
[32]
  TGI: > 100 µM
[33]
  TGI: > 100 µM
[34]
  TGI: > 100 µM
[35]
  TGI: > 100 µM
[36]
  TGI: > 100 µM
[37]
  TGI: > 100 µM
[38]
  TGI: > 100 µM
[39]
  TGI: > 100 µM
[40]
  TGI: > 100 µM
[41]
  TGI: > 100 µM
[42]
  TGI: > 100 µM
[43]
  TGI: > 100 µM
[44]
  TGI: > 100 µM
[45]
  TGI: > 100 µM
[46]
  TGI: > 100 µM
[47]
  TGI: > 100 µM
[48]
  TGI: > 100 µM
[49]
  TGI: > 100 µM
[50]
  TGI: > 100 µM
[51]
  TGI: > 100 µM

## C=C=C(Sc1ccccc1)C(C)(C)O
[1]
  TGI: > 100 µM
[2]
  TGI: > 100 µM
[3]
  TGI: > 100 µM
[52]
  TGI: > 100 µM
[4]
  TGI: > 100 µM
[5]
  TGI: > 100 µM
[6]
  TGI: > 100 µM
[7]
  TGI: > 100 µM
[8]
  TGI: > 100 µM
[10]
  TGI: > 100 µM
[11]
  TGI: > 100 µM
[12]
  TGI: > 100 µM
[14]
  TGI: > 100 µM
[15]
  TGI: > 100 µM
[16]
  TGI: > 100 µM
[53]
  TGI: > 100 µM
[17]
  TGI: > 100 µM
[19]
  TGI: > 100 µM
[22]
  TGI: > 100 µM
[23]
  TGI: > 100 µM
[24]
  TGI: > 100 µM
[25]
  TGI: > 100 µM
[26]
  TGI: > 100 µM
[27]
  TGI: > 100 µM
[28]
  TGI: > 100 µM
[29]
  TGI: > 100 µM
[30]
  TGI: > 100 µM
[31]
  TGI: > 100 µM
[32]
  TGI: > 100 µM
[33]
  TGI: > 100 µM
[34]
  TGI: > 100 µM
[35]
  TGI: > 100 µM
[54]
  TGI: > 100 µM
[55]
  TGI: > 100 µM
[56]
  TGI: > 100 µM
[37]
  TGI: > 100 µM
[38]
  TGI: > 100 µM
[39]
  TGI: > 100 µM
[40]
  TGI: > 100 µM
[41]
  TGI: > 100 µM
[42]
  TGI: > 100 µM
[43]
  TGI: > 100 µM
[44]
  TGI: > 100 µM
[45]
  TGI: > 100 µM
[57]
  TGI: > 100 µM
[46]
  TGI: > 100 µM
[47]
  TGI: > 100 µM
[48]
  TGI: > 100 µM
[58]
  TGI: > 100 µM
[49]
  TGI: > 100 µM
[50]
  TGI: > 100 µM
[51]
  TGI: > 100 µM

## COc1ccc(/C=C/C(=O)c2sc(NC(=S)NC(=O)c3ccc(Cl)cc3)nc2C)cc1OC
[1]
  TGI: > 100 µM
[2]
  TGI: > 100 µM
[3]
  TGI: > 100 µM
[4]
  TGI: > 100 µM
[5]
  TGI: > 100 µM
[6]
  TGI: > 100 µM
[7]
  TGI: > 100 µM
[8]
  TGI: > 100 µM
[9]
  TGI: > 100 µM
[10]
  TGI: > 100 µM
[11]
  TGI: > 100 µM
[12]
  TGI: > 100 µM
[13]
  TGI: > 100 µM
[14]
  TGI: > 100 µM
[16]
  TGI: > 100 µM
[53]
  TGI: > 100 µM
[17]
  TGI: > 100 µM
[18]
  TGI: > 100 µM
[19]
  TGI: > 100 µM
[20]
  TGI: > 100 µM
[21]
  TGI: > 100 µM
[22]
  TGI: > 100 µM
[23]
  TGI: > 100 µM
[24]
  TGI: > 100 µM
[25]
  TGI: 62 µM
[26]
  TGI: > 100 µM
[27]
  TGI: > 100 µM
[28]
  TGI: > 100 µM
[29]
  TGI: 39.5 µM
[30]
  TGI: > 100 µM
[32]
  TGI: > 100 µM
[33]
  TGI: > 100 µM
[34]
  TGI: > 100 µM
[35]
  TGI: > 100 µM
[36]
  TGI: > 100 µM
[55]
  TGI: 96.8 µM
[56]
  TGI: > 100 µM
[37]
  TGI: > 100 µM
[38]
  TGI: > 100 µM
[39]
  TGI: > 100 µM
[41]
  TGI: > 100 µM
[42]
  TGI: > 100 µM
[43]
  TGI: > 100 µM
[44]
  TGI: > 100 µM
[45]
  TGI: > 100 µM
[57]
  TGI: > 100 µM
[46]
  TGI: > 100 µM
[47]
  TGI: > 100 µM
[48]
  TGI: > 100 µM
[58]
  TGI: > 100 µM
[49]
  TGI: > 100 µM
[50]
  TGI: > 100 µM
[51]
  TGI: 88.1 µM
